Source: ChEMBL document CHEMBL4627246, “Pyroglutamide-Based P2X7 Receptor Antagonists Targeting Inflammatory Bowel Disease” (J Med Chem, 2020)

Key:
Format in all cases: cell-based
[1] = test system: KM12; assay: Cytotoxicity against human KM12 cells assessed as effect on cell growth at 10 uM incubated for 48 hrs by sulforhodamine B assay; conditions: km12, 48 h
[2] = test system: SK-OV-3; assay: Cytotoxicity against human SKOV3 cells assessed as effect on cell growth at 10 uM incubated for 48 hrs by sulforhodamine B assay; conditions: sk-ov-3, 48 h
[3] = test system: SK-MEL-28; assay: Cytotoxicity against human SK-MEL-28 cells assessed as effect on cell growth at 10 uM incubated for 48 hrs by sulforhodamine B assay; conditions: sk-mel-28, 48 h
[4] = test system: SN12C; assay: Cytotoxicity against human SN12C cells assessed as effect on cell growth at 10 uM incubated for 48 hrs by sulforhodamine B assay
[5] = test system: NCI-H226; assay: Cytotoxicity against human NCI-H226 cells assessed as effect on cell growth at 10 uM incubated for 48 hrs by sulforhodamine B assay; conditions: nci-h226, 48 h
[6] = test system: HOP-62; assay: Cytotoxicity against human HOP62 cells assessed as effect on cell growth at 10 uM incubated for 48 hrs by sulforhodamine B assay; conditions: hop-62, 48 h
[7] = test system: Hs-578T; assay: Cytotoxicity against human Hs 578T cells assessed as effect on cell growth at 10 uM incubated for 48 hrs by sulforhodamine B assay
[8] = test system: UACC-257; assay: Cytotoxicity against human UACC257 cells assessed as effect on cell growth at 10 uM incubated for 48 hrs by sulforhodamine B assay; conditions: uacc-257, 48 h
[9] = test system: EKVX; assay: Cytotoxicity against human EKVX cells assessed as effect on cell growth at 10 uM incubated for 48 hrs by sulforhodamine B assay
[10] = test system: LOX IMVI; assay: Cytotoxicity against human LOXIMVI cells assessed as effect on cell growth at 10 uM incubated for 48 hrs by sulforhodamine B assay
[11] = test system: K562; assay: Cytotoxicity against human K562 cells assessed as effect on cell growth at 10 uM incubated for 48 hrs by sulforhodamine B assay; conditions: k562, 48 h
[12] = test system: NCI-H522; assay: Cytotoxicity against human NCI-H522 cells assessed as effect on cell growth at 10 uM incubated for 48 hrs by sulforhodamine B assay; conditions: nci-h522, 48 h
[13] = test system: COLO 205; assay: Cytotoxicity against human COLO205 cells assessed as effect on cell growth at 10 uM incubated for 48 hrs by sulforhodamine B assay; conditions: colo 205, 48 h
[14] = test system: NCI-H460; assay: Cytotoxicity against human NCI-H460 cells assessed as effect on cell growth at 10 uM incubated for 48 hrs by sulforhodamine B assay; conditions: nci-h460, 48 h
[15] = test system: SR; assay: Cytotoxicity against human SR cells assessed as effect on cell growth at 10 uM incubated for 48 hrs by sulforhodamine B assay
[16] = test system: SK-MEL-5; assay: Cytotoxicity against human SK-MEL-5 cells assessed as effect on cell growth at 10 uM incubated for 48 hrs by sulforhodamine B assay; conditions: sk-mel-5, 48 h
[17] = test system: BT-549; assay: Cytotoxicity against human BT549 cells assessed as effect on cell growth at 10 uM incubated for 48 hrs by sulforhodamine B assay; conditions: bt-549, 48 h
[18] = test system: SF-295; assay: Cytotoxicity against human SF295 cells assessed as effect on cell growth at 10 uM incubated for 48 hrs by sulforhodamine B assay; conditions: sf-295, 48 h
[19] = test system: NCI/ADR-RES; assay: Cytotoxicity against human NCI/ADR-RES cells assessed as effect on cell growth at 10 uM incubated for 48 hrs by sulforhodamine B assay
[20] = test system: A549; assay: Cytotoxicity against human A549/ATCC cells assessed as effect on cell growth at 10 uM incubated for 48 hrs by sulforhodamine B assay; conditions: a549, 48 h

Measured: Activity

O=C(NCc1ccc(Cl)cc1Cl)[C@@H]1CCC(=O)N1C(c1ccccc1)c1ccccc1
Non-Toxic: all assays above

COc1ccc(NC(=O)[C@@H]2C/C(=C\N(C)C)C(=O)N2)cc1
Non-Toxic: all assays above

Cc1ccc(NC(=O)[C@@H]2CCC(=O)N2c2ccccc2)cc1
Non-Toxic: all assays above

O=C1N[C@H](C(=O)NCc2ccc(Cl)cc2Cl)C/C1=N\O (stereo in doubt)
Non-Toxic: all assays above

N#Cc1ccc(N2C(=O)CC[C@H]2C(=O)NCc2ccc(Cl)cc2Cl)cc1
Non-Toxic: all assays above

CN(C)/C=C1\C[C@@H](C(=O)NCc2ccc(Cl)cc2Cl)N(c2cccs2)C1=O
Non-Toxic: all assays above

O=C(NCc1ccc(Cl)cc1Cl)[C@@H]1CCC(=O)N1c1ccc(Cl)cc1Cl
Non-Toxic: all assays above

COc1cc(CN/C=C2\C[C@@H](C(=O)NCc3ccc(Cl)cc3Cl)NC2=O)cc(OC)c1OC
Non-Toxic: all assays above

O=C(NCc1ccccc1)[C@@H]1CCC(=O)N1Cc1ccc(Cl)cc1Cl
Non-Toxic: all assays above
